Experimental data reported in patent US8050868B2, “Methods for determining the organization of a cellular component of interest” (Cellomics, Inc., priority 2001, dated 2011).

Legend:
3T3 cells [1] = experiment: Histogram distribution of microtubule-associated pixel intensities (OD variance); format: cell-based; details: individual 3T3 cells
Text: Finally, histogram distribution of microtubule-associated pixel intensities in individual 3T3 cells was used to distinguish control cells from cells treated with nocodazole, paclitaxel, and vinblastine.

microtubules [2] = experiment: Peaks and valleys of pixel intensity around the perinuclear ring mask (modal classification)
microtubules [3] = experiment: Microtubule organization using concentric perinuclear ring masks; format: cell-based; details: for effect on microtubule organization / pattern of microtubule-associated fluorescence: similarity to other treatments: five sequential dilations of perinuclear ring mask, duplicate wells
Procedure: Domains were defined by five sequential dilations of a perinuclear ring mask, and measurements were made of the mean microtubule-associated intensity, the standard deviation of the microtubule-associated intensity, the mean cytoplasm to nucleus fluorescence intensity ratio, and cell-normalized microtubule fluorescence intensity. For each drug treatment condition, experiments were performed in duplicate.
Finally, the slope of the best linear fit of the microtubule associated fluorescence was calculated as a function of the angular dilation. This way, it was possible to compare the rate of change of these parameters as a function of domain position.

Fibroblasts = experiment: Cell-based analysis of microtubule-targeting drugs, anti-tubulin immunocytochemistry, fibroblasts
Procedure: (§1) The mechanism of action of microtubule-targeting drugs was assessed in a cell component of interest field, represented as an image of tubulin-stained cells. Fibroblasts, epithelial cells,) and monocytes were left untreated ) or were treated with a variety of microtubule-targeting drugs. Cells were fixed and then stained with anti-tubulin immunocytochemistry, in order to determine how the different drugs affect morphological organization of microtubules.

tubulin [4] = details: single annular domain divided into 24 angular domains
epithelial cells = experiment: Cell-based analysis of microtubule-targeting drugs, anti-tubulin immunocytochemistry, epithelial cells
Procedure: as §1

3T3 cells [5] = experiment: Quantitative determination of microtubule polymer content (perinuclear ring mask, anti-tubulin immunofluorescence); format: cell-based; details: two-hour treatment
Procedure: (§2) Cell culture/drug treatments: Cells were plated on 96-well plates in the appropriate cell culture media plus 10% FBS. […] Different plating densities and treatment times were explored to maximize the observable effects of the drugs.
Immunofluorescence: This included three steps: (1) Extraction of soluble (monomeric) tubulin by permeabilizing the cells with 0.5% Triton X-100 in a microtubule stabilizing buffer, in order to remove unpolymerized tubulin. (2) Fixation of intracellular protein with 4% formaldehyde. (3) Microtubule, DNA, and (optional) total cellular protein fluorescence labeling. […]
Image Analysis: Quantitative determination of microtubule polymer levels was performed using the methods described above. […] The nuclear image was dilated to produce a perinuclear ring mask, where cytoplasmic tubulin polymer was measured. […]
Quantitation of microtubule-associated intensity was carried out by summing the pixel intensities in the microtubule (MT) channel in the area covered by the perinuclear ring mask. […] From these measurements a MT polymerization index was calculated by normalizing the amount of MT fluorescence in a treated, “experimental” cell population, versus the amount of MT-associated fluorescence in an untreated, control cell population. […] Other methods of quantitation that were used are described below. […]

microtubules [6] = experiment: Preliminary time-course and 12 hour dose-response evaluations of microtubule polymer mass; format: cell-based
Procedure: as §2
(§3) Immunofluorescence: This included three steps: (1) Extraction of soluble (monomeric) tubulin by permeabilizing the cells with 0.5% Triton X-100 in a microtubule stabilizing buffer, in order to remove unpolymerized tubulin. (2) Fixation of intracellular protein with 4% formaldehyde. (3) Microtubule, DNA, and (optional) total cellular protein fluorescence labeling. Microtubule staining was carried out by a standard immunofluorescence procedures using a primary mouse monoclonal antibody (anti-tubulin IgG), and affinity purified polyclonal secondary antibody (ALEXA FLUOR® 488-conjugated anti-mouse IgG (Molecular Probes, Inc. Eugene, OR)). After the cells were stained, DNA was labeled with 10 microgram/ml Hoechst 33342.
(§4) For cells triple-stained with tetramethylrhodamine iodoacetate (TMRIA) (Molecular Probes), Hoechst 33342, and ALEXA FLUOR® 488 (tubulin), or cells double stained with Hoechst 33342 and ALEXA FLUOR® 488, an XF57 filter block was used.
Image Analysis: Quantitative determination of microtubule polymer levels was performed using the methods described above. For analysis, a binary nuclear mask was made by thresholding the Hoechst image. The nuclear image was dilated to produce a perinuclear ring mask, where cytoplasmic tubulin polymer was measured. The ring mask allowed measurement of average intensity levels associated with the microtubule image. […] Other methods of image analysis that were used are described below.
Quantitation of microtubule-associated intensity was carried out by summing the pixel intensities in the microtubule (MT) channel in the area covered by the perinuclear ring mask. This integrated pixel intensity was then divided by the actual area of the perinuclear ring mask to arrive at the mean or “average” pixel intensity in the region covered by the perinuclear ring. From these measurements a MT polymerization index was calculated by normalizing the amount of MT fluorescence in a treated, “experimental” cell population, versus the amount of MT-associated fluorescence in an untreated, control cell population. This polymerization index represents a fraction or percentage of MT polymerization or depolymerization, relative to the untreated controls. Other methods of quantitation that were used are described below.
In addition, preliminary time-course and 12 hour dose-response evaluations using paclitaxel, nocodazole, and vinblastine were performed.

monocytes = experiment: Cell-based analysis of microtubule-targeting drugs, anti-tubulin immunocytochemistry, monocytes
Procedure: as §1

tubulin [7] = experiment: Population analysis of spatial organization of tubulin with five annular domains; details: five perinuclear annular domains; n>20 cells; duplicate
microtubules [8] = experiment: Microtubule organization using a single perinuclear ring mask and field based threshold measurements (spot count, spot area); format: cell-based; details: min-max plates
Procedure: as §2, §3, §4

tubulin [9] = experiment: Multi-domain analysis of tubulin organization (angular, transverse, annular domains); format: cell-based; details: single cell
Procedure: Referring to FIG. 8, experiments were conducted to analyze tubulin organization in untreated (8A-D) and drug-treated (8E-H) fields of cells using angular (8B,F), transverse (8C, G) or annular domains (8D,H). […] For the purpose of analysis, cell boundaries were defined (8B-D, 8F-H) based on the reference component origin (which here is the nuclear perimeter). The component of interest field was thresholded to show the brightest pixels, and a single cell is shown for illustration purposes.
The spatial organization of intensity distribution within individual cells was then analyzed in an object of interest image, using annular domains (as in FIGS. […]). The data are shown in FIG. 9 as graphs of tubulin distribution in a single control (9A-C) and a vinblastine-treated cell (9D-F). Annular domains were created by sequential dilations of the nuclear perimeter. The position of the domain furthest away from the nucleus was given a value of one, and domain position increases in number with nuclear proximity. For each plot, measurements of tubulin distribution were normalized, by dividing the measurement obtained in a particular domain by the measurement obtained in the domain that is immediately adjacent to the nucleus. Intensity distribution within each domain was analyzed using a mathematical function to calculate the following: (1) the average pixel intensity (a measure proportional to tubulin mass) (9A, D); (2) texture difference moment (a measure proportional to tubulin periodicity) (9B, E); and (3) OD variance (a measure proportional to tubulin clustering) (9C,F). To determine the trends within each cell, data points were fitted with a linear function. […] For comparing cell populations under different treatment conditions, a number of cells in each condition can be analyzed as a sample, and the average slope within each sample used for statistical analysis.

[10] = nanomolar concentrations, 12 hour incubation
[11] = micromolar doses, 12 hour incubation

| SMILES | whether OD variance of the pixel intensity distribution distinguishes treated vs. control cell populations (3T3 cells [1]) | type of spatial distribution of fluorescent pixel intensities at the nuclear periphery (mono-modal, non-modal, multi-modal) (microtubules [2]) | slope of best linear fit of microtubule associated fluorescence vs domain position: similarity to other treatments (microtubules [3]) | effect on microtubule organization (microtubules [3]) | pattern of microtubule-associated fluorescence: similarity to other treatments (microtubules [3]) | morphological organization of microtubules (Fibroblasts) | above threshold peaks in intensity distribution per cell, on average (tubulin [4]) [spots] | morphological organization of microtubules (epithelial cells) | effect on microtubules and cell division (microtubules [6]; [10]) | morphological organization of microtubules (monocytes) | standard deviation of mean tubulin fluorescence: similarity of tubulin organization to other treatments (tubulin [7]) | well average spot area (microtubules [8]) | well normalized spot counts (microtubules [8]) | also measured |
| --- | --- | --- | --- | --- | --- | --- | --- | --- | --- | --- | --- | --- | --- | --- |
| COC(=O)Nc1nc2ccc(C(=O)c3cccs3)cc2[nH]1 [nocodazole] | could distinguish | Non-modal | most similar to the slope of cells treated with colchicine | microtubule disruption | resembled colchicine treated cells | depolymerized the microtubules, and led to a diffuse staining of tubulin throughout the cytoplasm | 2 | induced microtubule depolymerization and led to diffuse staining of tubulin throughout the cell cytoplasm | inhibit cell division without necessarily inducing the net depolymerization of microtubules | led to microtubule depolymerization and led to diffuse tubulin staining | more similar to colchicine-treated cells | – | – | cell-associated microtubule intensity (3T3 cells [5]; 5 micromolar): significant decrease; microtubule polymer mass (microtubules [6]; [10]): increase |
| CC(=O)O[C@H]1C(=O)[C@@]2(C)[C@H]([C@H](OC(=O)c3ccccc3)[C@]3(O)C[C@H](OC(=O)[C@H](O)[C@@H](NC(=O)c4ccccc4)c4ccccc4)C(C)=C1C3(C)C)[C@]1(OC(C)=O)CO[C@@H]1C[C@@H]2O [paclitaxel, Paclitaxel] | could distinguish | Multimodal | most similar to the slope of cells treated with vinblastine | formation of microtubule bundles or aggregates in the cytoplasm | resembled vinblastine treated cells | formation of microtubule bundles, and destroyed the focal organization of microtubules | 4 | induced formation of microtubule bundles in association with the cell edge | – | decreased microtubule staining in the nuclear region | more similar to vinblastine-treated cells | increased | partly increased | cell-associated microtubule intensity (3T3 cells [5]; 1 micromolar): significant increase; quality of dose-response data (microtubules [6]; 12 hour dose-response, preliminary): excellent dose response data |
| CC[C@]1(O)C[C@@H]2CN(CCc3c([nH]c4ccccc34)[C@@](C(=O)OC)(c3cc4c(cc3OC)N(C)[C@H]3[C@@](O)(C(=O)OC)[C@H](OC(C)=O)[C@]5(CC)C=CCN6CC[C@]43[C@@H]65)C2)C1 [vinblastine] | could not distinguish | Multimodal | – | formation of microtubule bundles or aggregates in the cytoplasm | – | depolymerized the microtubules and led to the formation of tubulin paracrystals | 3 | disrupted the microtubules and led to the formation of tubulin paracrystals | depolymerized microtubules and inhibited microtubule polymerization | intermediate effect between nocodazole and paclitaxel | – | significant decrease | partly increasing | effect on tubulin organization (microtubules [6]; [11]): induced the formation of tubulin paracrystals; microtubule polymer mass (microtubules [6]; [11]): apparent increase; distribution of brightest thresholded pixels over angular, transverse or annular domains (tubulin [9]; FIG. 8): broader distribution; OD variance (tubulin clustering) as a function of domain position (tubulin [9]; FIG. 9): marked decrease; texture difference moment (tubulin periodicity) as a function of distance from the nucleus (tubulin [9]; FIG. 9): centrifugal increase; trend of average pixel intensity (tubulin mass) as a function of annular domain position (tubulin [9]; linear fit, FIG. 9): positive slope |
